{"source": "patent US20240101600A1", "about": "“FIBROBLAST GROWTH FACTOR RECEPTOR (FGFR)-TARGETING ANTAGONISTIC SHORT PEPTIDE” (WENZHOU MEDICAL UNIVERSITY, priority 2019, published 2024)", "key": {"NCI-H460 cells": {"test_system": "NCI-H460 cells", "assay": "MTT viability, NCI-H460 cells", "format": "cell-based", "settings": "48 h with bFGF", "experimental": "In vitro anti-tumor activity of a short peptide compound P48 Hela229 (1500 cells/100 μl), B16-F10 (1000 cells/100 μl), NCI-H460 (4000 cells/100 μl) and SGC7901 (4000 cells/100 μl) cells were inoculated in 96-well plates. After incubated overnight adherently, the original medium was replaced with a Dulbecco's modified eagle medium (DMEM) containing 0.1% fetal bovine serum (FBS) or a Roswell Park Memorial Institute 1640 (RPMI-1640) medium containing 0.1% FBS, and culture was continued for 24 h. A mixture of P48 and bFGF, or bFGF alone were added into corresponding wells, and incubated for 48 h; an MTT solution (5 mg/mL) prepared by PBS was added to the cells in each well at 37° C., and treated for 4 h. The MTT was removed by aspiration, 150 μL of DMSO was added to each well, shaking was conducted for 10 min, and an optical density (OD) value was quantified with a microplate reader (SpectraMax M2/M2e, Molecular Devices, Sunnyvale, USA) at a wavelength of 490 nm. The percentage of drug growth inhibition rate was calculated by comparing with the bFGF group. […] The experimental procedure was as follows: 10% FBS-containing medium (500 μl) was added to a lower surface of a transwell insertion chamber, the cells together with the drug were inoculated into an upper chamber, and cultured with a serum-free medium (200 μl). […]"}, "FGFR3B": {"molecular_target": "FGFR3B (Homo sapiens, UniProt P22607)", "sequence (P22607 23-808 isoform P22607-2 limits assumed)": "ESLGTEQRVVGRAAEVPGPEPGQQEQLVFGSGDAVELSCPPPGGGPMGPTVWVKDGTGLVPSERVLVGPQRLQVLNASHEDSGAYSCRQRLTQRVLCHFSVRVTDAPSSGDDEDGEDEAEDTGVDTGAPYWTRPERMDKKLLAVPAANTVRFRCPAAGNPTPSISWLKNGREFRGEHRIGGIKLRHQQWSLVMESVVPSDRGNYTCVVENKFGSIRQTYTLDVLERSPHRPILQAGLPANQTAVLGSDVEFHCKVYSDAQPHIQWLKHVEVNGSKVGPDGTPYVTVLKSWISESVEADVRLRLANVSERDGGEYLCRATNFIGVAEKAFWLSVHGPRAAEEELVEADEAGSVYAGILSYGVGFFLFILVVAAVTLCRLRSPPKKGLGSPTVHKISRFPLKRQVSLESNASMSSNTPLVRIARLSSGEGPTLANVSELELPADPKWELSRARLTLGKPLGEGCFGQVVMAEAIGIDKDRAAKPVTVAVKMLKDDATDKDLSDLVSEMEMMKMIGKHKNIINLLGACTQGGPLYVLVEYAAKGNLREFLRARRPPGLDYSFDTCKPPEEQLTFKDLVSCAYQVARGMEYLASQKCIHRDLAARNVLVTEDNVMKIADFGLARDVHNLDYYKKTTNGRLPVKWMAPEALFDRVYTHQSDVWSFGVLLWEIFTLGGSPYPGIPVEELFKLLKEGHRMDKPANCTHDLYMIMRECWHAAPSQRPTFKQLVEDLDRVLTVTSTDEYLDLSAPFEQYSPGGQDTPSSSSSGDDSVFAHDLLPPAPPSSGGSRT", "assay": "SPR detection of interaction with FGFR3B", "format": "binding"}}, "note": "Where no end group is shown, it is not given here.", "data": [{"substance": "SPPRYPGGGS-NH2 [P48, Ser-Pro-Pro-Arg-Tyr-Pro-Gly-Gly-Gly-Ser-NH2]", "values": [{"measurement": "inhibition of cancer cell viability", "setting": "NCI-H460 cells", "result": "can significantly inhibit the viability of cancer cells"}, {"measurement": "binding to FGFR3B", "setting": "FGFR3B", "result": "can be bound"}]}]}
